Patent publication US10131652B2, “Pyrimidinyloxy benzene derivatives as herbicides” (E. I. DU PONT DE NEMOURS AND COMPANY, priority 2014, dated 2018)

How the values were obtained:
Format in all cases: in vivo
[1] = system: galium (catchweed bedstraw, Galium aparine); assay: Test B postemergence plant response
Outline: (§1)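 Weeds grown in loam soil/sand pots were sprayed postemergence at 2 to 10 cm height, one- to two-leaf stage. After approximately 10 days in greenhouse, injury was rated visually against untreated controls on a 0 (no effect) to 100 (complete control) scale; dash means no test result.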

[2] = system: blackgrass (Alopecurus myosuroides); assay: Test B postemergence plant response
Outline: as §1

[3] = system: ducksalad (Heteranthera limosa); assay: Test C flooded paddy test plant response; details: Flood, 250 g ai/ha; scale of 0 to 100 where 0 is no effect and 100 is complete control; 13 to 15 days
Outline: (§2)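 Scored visually on a 0–100 scale (100 = complete control) against untreated plants 13 to 15 days after treatment in the greenhouse. Compounds went into paddy water of pots flooded to 3 cm, holding 2-leaf-stage plants.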

[4] = system: barnyardgrass (Echinochloa crus-galli); assay: Test C flooded paddy test plant response; details: Flood, 250 g ai/ha; scale of 0 to 100 where 0 is no effect and 100 is complete control; 13 to 15 days
Outline: as §2

[5] = system: small-flower umbrella sedge (Cyperus difformis); assay: Test C flooded paddy test plant response; details: Flood, 250 g ai/ha; scale of 0 to 100 where 0 is no effect and 100 is complete control; 13 to 15 days
Outline: as §2

rice (Oryza sativa) = assay: Test C flooded paddy test plant response; details: Flood, 250 g ai/ha; scale of 0 to 100 where 0 is no effect and 100 is complete control; 13 to 15 days
Outline: as §2

[6] = system: giant foxtail (Setaria faberii); assay: Test B pre-/postemergence plant response
Outline: (§3)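 Seeds in loam–sand blend given preemergence soil spray; separately, plants at one- to two-leaf stage (2–10 cm) sprayed postemergence, compounds in non-phytotoxic solvent with surfactant. Injury rated visually versus untreated controls after ~10 days in greenhouse, 0 (no effect) to 100 (complete control).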

corn (Zea mays) = assay: Test B pre-/postemergence plant response
Outline: as §3

[7] = system: wheat (Triticum aestivum); assay: Test B pre-/postemergence plant response
Outline: as §3

[8] = system: barnyardgrass (Echinochloa crus-galli); assay: Test B pre-/postemergence plant response
Outline: as §3

kochia (Kochia scoparia) = assay: Test B pre-/postemergence plant response
Outline: as §3

[9] = system: pigweed (Amaranthus retroflexus); assay: Test B pre-/postemergence plant response
Outline: as §3

[10] = system: ragweed (common ragweed, Ambrosia elatior); assay: Test B pre-/postemergence plant response
Outline: as §3

[11] = system: Italian ryegrass (Lolium multiflorum); assay: Test B pre-/postemergence plant response
Outline: as §3

[12] = 125 g ai/ha, postemergence, 0 to 100 scale, 0 no effect, 100 complete control
[13] = Postemergence, 500 g ai/ha, 0 to 100 scale (0 no effect, 100 complete control)
[14] = Preemergence, 125 g ai/ha, 0 to 100 scale (0 no effect, 100 complete control)
[15] = Preemergence, 500 g ai/ha, 0 to 100 scale where 0 is no effect and 100 is complete control
[16] = Postemergence, 1000 g ai/ha, 0 to 100 scale (0 no effect, 100 complete control)
[17] = Preemergence, 1000 g ai/ha, 0 to 100 scale (0 no effect, 100 complete control)
[18] = Postemergence, 31 g ai/ha, 0 to 100 scale (0 no effect, 100 complete control)
[19] = 31 g ai/ha, Preemergence, 0 to 100 scale where 0 is no effect and 100 is complete control

SMILES	Plant response rating, Galium [1, 12]	Plant response rating, Blackgrass [2, 12]	Ducksalad plant response rating [3]	Barnyardgrass plant response rating [4]	Sedge, Umbrella plant response rating [5]	Rice plant response rating (rice (Oryza sativa))	Plant response rating, Foxtail, Giant [6, 12]	Foxtail, Giant plant response rating [6, 14]	Plant response rating, Corn (corn (Zea mays); [12])	Plant response rating, Wheat [7, 12]	Plant response rating, Barnyardgrass [8, 12]	Barnyardgrass plant response rating [8, 14]	Plant response rating, Kochia (kochia (Kochia scoparia); [12])	Kochia plant response rating (kochia (Kochia scoparia); [14])	Plant response rating, Pigweed [9, 12]	Pigweed plant response rating [9, 14]	Plant response rating, Ragweed [10, 12]	Ragweed plant response rating [10, 14]	Plant response rating, Ryegrass, Italian [11, 12]	Ryegrass, Italian plant response rating [11, 14]	further results
Cc1c(-c2ccccc2Oc2ncc(Cl)cn2)noc1C(F)(F)F [Compound 167]	10	0	0	0	0	0	0	0	0	10	0	0	10	0	10	0	0	0	0	0	Plant response rating, Galium [1, 13]: 60; Plant response rating, Blackgrass [2, 13]: 10; Plant response rating, Foxtail, Giant [6, 13]: 10; Plant response rating, Foxtail, Giant [6, 15]: 30; Plant response rating, Corn (corn (Zea mays); [13]): 20; Plant response rating, Wheat [7, 13]: 20; Plant response rating, Barnyardgrass [8, 13]: 10; Plant response rating, Barnyardgrass [8, 15]: 10; Plant response rating, Kochia (kochia (Kochia scoparia); [13]): 60; Plant response rating, Kochia (kochia (Kochia scoparia); [15]): 30; Plant response rating, Pigweed [9, 13]: 70; Plant response rating, Pigweed [9, 15]: 20; Plant response rating, Ragweed [10, 13]: 0; Plant response rating, Ragweed [10, 15]: 10; Plant response rating, Ryegrass, Italian [11, 13]: 0; Plant response rating, Ryegrass, Italian [11, 15]: 0
Cc1cc(-c2ccccc2Oc2ncc(Cl)cn2)sn1 [Compound 171]	–	–	0	0	0	0	–	–	–	–	–	–	–	–	–	–	–	–	–	–	Plant response rating, Galium [1, 16]: 100; Plant response rating, Blackgrass [2, 16]: 80; Plant response rating, Foxtail, Giant [6, 16]: 100; Plant response rating, Foxtail, Giant [6, 17]: 100; Plant response rating, Corn (corn (Zea mays); [16]): 10; Plant response rating, Wheat [7, 16]: 30; Plant response rating, Barnyardgrass [8, 16]: 30; Plant response rating, Barnyardgrass [8, 17]: 70; Plant response rating, Kochia (kochia (Kochia scoparia); [16]): 100; Plant response rating, Kochia (kochia (Kochia scoparia); [17]): 90; Plant response rating, Pigweed [9, 16]: 100; Plant response rating, Pigweed [9, 17]: 100; Plant response rating, Ragweed [10, 16]: 30; Plant response rating, Ragweed [10, 17]: 0; Plant response rating, Ryegrass, Italian [11, 16]: 10; Plant response rating, Ryegrass, Italian [11, 17]: 10
Cc1cnc(Oc2ccccc2-c2cc(C(C)(F)F)on2)nc1 [Compound 173]	90	70	80	0	60	0	90	100	40	0	70	90	100	100	80	100	60	70	20	20	Plant response rating, Galium [1, 18]: 50; Plant response rating, Blackgrass [2, 18]: 30; Plant response rating, Foxtail, Giant [6, 19]: 50; Plant response rating, Foxtail, Giant [6, 18]: 30; Plant response rating, Corn (corn (Zea mays); [18]): 10; Plant response rating, Wheat [7, 18]: 0; Plant response rating, Barnyardgrass [8, 19]: 60; Plant response rating, Barnyardgrass [8, 18]: 30; Plant response rating, Kochia (kochia (Kochia scoparia); [19]): 70; Plant response rating, Kochia (kochia (Kochia scoparia); [18]): 70; Plant response rating, Pigweed [9, 19]: 80; Plant response rating, Pigweed [9, 18]: 60; Plant response rating, Ragweed [10, 19]: 10; Plant response rating, Ragweed [10, 18]: 40; Plant response rating, Ryegrass, Italian [11, 19]: 0; Plant response rating, Ryegrass, Italian [11, 18]: 0
Clc1cnc(Oc2ccccc2-c2cc(Cl)ccn2)nc1 [Compound 174]	70	50	0	0	0	0	0	40	0	0	10	0	70	0	50	80	30	0	0	0	Plant response rating, Galium [1, 18]: 60; Plant response rating, Blackgrass [2, 18]: 40; Plant response rating, Foxtail, Giant [6, 19]: 0; Plant response rating, Foxtail, Giant [6, 18]: 0; Plant response rating, Corn (corn (Zea mays); [18]): 0; Plant response rating, Wheat [7, 18]: 0; Plant response rating, Barnyardgrass [8, 19]: 0; Plant response rating, Barnyardgrass [8, 18]: 0; Plant response rating, Kochia (kochia (Kochia scoparia); [18]): 60; Plant response rating, Pigweed [9, 19]: 60; Plant response rating, Pigweed [9, 18]: 50; Plant response rating, Ragweed [10, 19]: 0; Plant response rating, Ragweed [10, 18]: 20; Plant response rating, Ryegrass, Italian [11, 19]: 0; Plant response rating, Ryegrass, Italian [11, 18]: 0
Fc1ccnc(-c2ccccc2Oc2ncc(Cl)cn2)c1 [Compound 175]	40	0	0	0	0	0	0	0	0	0	10	0	30	0	60	70	30	0	0	0	Plant response rating, Galium [1, 18]: 20; Plant response rating, Blackgrass [2, 18]: 0; Plant response rating, Foxtail, Giant [6, 19]: 0; Plant response rating, Foxtail, Giant [6, 18]: 0; Plant response rating, Corn (corn (Zea mays); [18]): 0; Plant response rating, Wheat [7, 18]: 0; Plant response rating, Barnyardgrass [8, 19]: 0; Plant response rating, Barnyardgrass [8, 18]: 0; Plant response rating, Kochia (kochia (Kochia scoparia); [19]): 0; Plant response rating, Kochia (kochia (Kochia scoparia); [18]): 0; Plant response rating, Pigweed [9, 19]: 0; Plant response rating, Pigweed [9, 18]: 50; Plant response rating, Ragweed [10, 19]: 0; Plant response rating, Ragweed [10, 18]: 20; Plant response rating, Ryegrass, Italian [11, 19]: 0; Plant response rating, Ryegrass, Italian [11, 18]: 0
FC(F)(F)COc1cc(-c2ccccc2Oc2ncc(Cl)cn2)on1 [Compound 176]	90	30	75	0	30	0	50	90	30	0	30	50	100	20	100	90	20	0	10	10	Plant response rating, Galium [1, 18]: 30; Plant response rating, Blackgrass [2, 18]: 0; Plant response rating, Foxtail, Giant [6, 19]: 60; Plant response rating, Foxtail, Giant [6, 18]: 20; Plant response rating, Corn (corn (Zea mays); [18]): 10; Plant response rating, Wheat [7, 18]: 0; Plant response rating, Barnyardgrass [8, 19]: 10; Plant response rating, Barnyardgrass [8, 18]: 10; Plant response rating, Kochia (kochia (Kochia scoparia); [19]): 0; Plant response rating, Kochia (kochia (Kochia scoparia); [18]): 30; Plant response rating, Pigweed [9, 19]: 30; Plant response rating, Pigweed [9, 18]: 90; Plant response rating, Ragweed [10, 19]: 0; Plant response rating, Ragweed [10, 18]: 10; Plant response rating, Ryegrass, Italian [11, 19]: 0; Plant response rating, Ryegrass, Italian [11, 18]: 0
